Reference: patent US9049863B2, “Substituted (3R,4R)-4-cyan-3,4-diphenylbutanoates, method for the production thereof and use thereof as herbicides and plant growth regulators” (Bayer Intellectual Property GmbH, priority 2011, dated 2015)

Key:
Type in all cases: in vivo
[1] = test system: a plurality of harmful plants; assay: Herbicidal pre-emergence action; details: 320 g or less of active substance per hectare
Excerpt: Seeds of monocotyledonous and dicotyledonous weed plants and crop plants are placed in wood-fiber pots in sandy loam and covered with soil. The compounds (I) according to the invention, formulated in the form of wettable powders (WP), are then applied as aqueous suspension or emulsion at a water application rate of 600 l/ha (converted) with the addition of 0.2% of wetting agent to the surface of the covering soil.
After the treatment, the pots are placed in a greenhouse and kept under good growth conditions for the test plants. After about 3 weeks, the effect of the preparations is scored visually in comparison with untreated controls as percentages. For example, 100% activity=the plants have died, 50% herbicidal activity or damage=the plants have been reduced by 50% or the plant mass has been reduced by 50%, 0% activity=like control plants.

Lolium multiflorum = assay: Herbicidal action and crop plant compatibility, pre-emergence (3.2); details: 80 g/ha, about 4 weeks
Excerpt: (§1) 3.2 In further trials in the greenhouse, seeds of crop plants and seeds of harmful plants are placed in pots in sandy loam soil, covered with earth and cultivated under good growth conditions. The compounds (I) according to the invention, formulated in the form of wettable powders (WP), are then applied as aqueous suspension or emulsion at a water application rate of 300 l/ha (converted) with the addition of 0.2% of wetting agent to the surface of the covering soil. After the test plants have been kept in the greenhouse under optimum growth conditions for about 4 weeks, the activity of the preparations is rated visually in comparison to untreated controls in percent (%): For example, 100% activity=the plants have died, 50% herbicidal activity or damage=the plants have been reduced by 50% or the plant mass has been reduced by 50%, 0% activity=like control plants.

Amaranthus retroflexus = assay: as above; details: 80 g/ha, about 4 weeks
Excerpt: as §1

Setaria viridis [2] = assay: as above; details: 80 g/ha, about 4 weeks
Excerpt: as §1

Viola tricolor [3] = assay: as above; details: 80 g/ha, about 4 weeks
Excerpt: as §1

Alopecurus myosuroides = assay: as above; details: 80 g/ha, about 4 weeks
Excerpt: as §1

Echinochloa crus-galli [4] = assay: as above; details: 80 g/ha, about 4 weeks
Excerpt: as §1

Polygonum convolvulus [5] = assay: as above; details: 80 g/ha, about 4 weeks
Excerpt: as §1

Avena fatua [6] = assay: as above; details: 80 g/ha, about 4 weeks
Excerpt: as §1

Veronica persica [7] = assay: as above; details: 80 g/ha, about 4 weeks
Excerpt: as §1

oilseed rape = assay: Herbicidal action and crop plant compatibility, post-emergence (3.3); details: 80 g/ha, 4 weeks after the treatment
Procedure: (§2) 3.3 In further trials in the greenhouse, seeds of crop plants and seeds of harmful plants are placed in pots in sandy loam soil, covered with earth and cultivated under good growth conditions. The test plants are treated at the 2-3-leaf stage, where the compounds (I) according to the invention, formulated in the form of wettable powders (WP), are applied by spraying as aqueous suspension or emulsion at a water application rate of […] (converted) with the addition of 0.2% of wetting agent to the green parts of the plants. 4 weeks after the treatment and after the test plants have been kept in the greenhouse under optimum growth conditions, the activity of the preparations is rated visually in comparison to untreated controls in percent (%): For example, 100% activity=the plants have died, 50% herbicidal activity or damage=the plants have been reduced by 50% or the plant mass has been reduced by 50%, 0% activity=like control plants.

Setaria viridis [8] = assay: as above; details: 80 g/ha, 4 weeks after the treatment
Procedure: as §2

Viola tricolor [9] = assay: as above; details: 80 g/ha, 4 weeks after the treatment
Procedure: as §2

Echinochloa crus-galli [10] = assay: as above; details: 80 g/ha, 4 weeks after the treatment
Procedure: as §2

Polygonum convolvulus [11] = assay: as above; details: 80 g/ha, 4 weeks after the treatment
Procedure: as §2

Avena fatua [12] = assay: as above; details: 80 g/ha, 4 weeks after the treatment
Procedure: as §2

wheat = assay: as above; details: 80 g/ha, 4 weeks after the treatment
Procedure: as §2

Veronica persica [13] = assay: as above; details: 80 g/ha, 4 weeks after the treatment
Procedure: as §2

SMILES	herbicidal activity against a plurality of harmful plants [1]	herbicidal activity against Lolium multiflorum (Lolium multiflorum) [%]	herbicidal activity against Amaranthus retroflexus (Amaranthus retroflexus) [%]	herbicidal activity against Setaria viridis (Setaria viridis [2]) [%]	herbicidal activity against Viola tricolor (Viola tricolor [3]) [%]	herbicidal activity against Alopecurus myosuroides (Alopecurus myosuroides) [%]	herbicidal activity against Echinochloa crus-galli (Echinochloa crus-galli [4]) [%]	herbicidal activity against Polygonum convolvulus (Polygonum convolvulus [5]) [%]	herbicidal activity against Avena fatua (Avena fatua [6]) [%]	herbicidal activity against Veronica persica (Veronica persica [7]) [%]	selectivity in oilseed rape (damage) (oilseed rape) [%]	herbicidal activity against Setaria virides (Setaria viridis [8]) [%]	herbicidal activity against Viola tricolor (Viola tricolor [9]) [%]	herbicidal activity against Echinochloa crus-galli (Echinochloa crus-galli [10]) [%]	herbicidal activity against Polygonum convolvulus (Polygonum convolvulus [11]) [%]	herbicidal activity against Avena fatua (Avena fatua [12]) [%]	selectivity in wheat (damage) (wheat)	herbicidal activity against Veronica persica (Veronica persica [13]) [%]
COC(=O)C[C@@H](c1ccc(Cl)cc1)[C@@H](C#N)c1cccc(F)c1 [Example 1, methyl (3R,4R)-3-(4-chlorophenyl)-4-cyano-4-(3-fluorophenyl)butanoate]	good herbicidal activity	80 to 100	80 to 100	80 to 100	80 to 100	80 to 100	80 to 100	80 to 100	80 to 100	80 to 100	–	–	–	–	–	–	–	–
CCCCOC(=O)C[C@@H](c1cccc(F)c1)[C@@H](C#N)c1ccc(F)c(F)c1 [Example 86]	good herbicidal activity	–	–	–	–	–	–	–	–	–	0	80	80	80	80	90	up to 10%	70
